Experimental data from patent US6953814B2, “Natural insect repellant” (Stratacor, Inc., priority 1997, dated 2005).
Where “and” joins values, the source holds several entries; their conditions need not be identical. Identical values can stand only once.

What was measured:
[1] = at 125° C., literature values; cited from earlier work
[2] = Vapor pressure; assay type: physicochemical; conditions: for Vol. (vapor pressure), (est): at 125° C., estimated or extrapolated from literature values
[3] = system: Aedes aegypti; conditions: 0.5 mg/cm^2 on the skin of man; cited from earlier work
[4] = system: Aedes aegypti mosquitoes; conditions: 0.31 mg/cm^2; cited from earlier work
[5] = Ionization at skin pH; assay type: physicochemical; conditions: pH = pKa of the acids
From the text: Naturally occurring fatty acids contain both polar (carboxylic acid group) and non-polar (alkyl chain) regions in their structure and the lower molecular weight homologs are sufficiently volatile to evaporate from the skin surface. Individually, these compounds have repellent activity. A number of these compounds were applied to non-absorptive gauze mounted between the human forearm and the olfactometer containing mosquitoes. These tests were done immediately after application to minimize losses due to evaporation (described fully in “Example 2” below). Because skin absorption and evaporative loss is minimized, this test can be regarded as a measure of the potency of the compounds. Homologs containing 8 to 11 carbon atoms had similar potency (percent repellency), which was greater than that of DEET (FIG. 3). Six carbon homologs and twelve carbon homologs had potency equal to or less than DEET. […] Percent repellency dropped dramatically with increasing numbers of carbon atoms in the molecule (FIG. 4). […] The nonanoic acid was preferably saturated. 4MOCTAN had the best overall performance at the zero and two hour time points. It should be noted for FIGS. 4 and 5 that the carboxylic acids exist on the skin at a pH which ionizes 50% of the molecules (pH=pKa of the acids). Since the ionized species are not volatile, the actual available dose is approximately 50% of that for DEET.

[6] = Thermal stability; assay type: physicochemical
[7] = system: Aedes aegypti mosquitoes; assay: Mosquito repellency on gauze or polyester film (olfactometer); assay type: in vivo; conditions: cotton gauze or polyester film, 0.3 mg/cm^2, 3 minutes after application
From the text: Olfactometer: A Fiensod and […] olfactometer, as modified by Bowen and Davis, measured the host-oriented flight response of female mosquitoes to volatile host emanations (Feinsod, F. M., and […]; An olfactometer for measuring host-seeking behavior of female Aedes aegypti (Diptera: Culicidae); J. Med. Entomol., 15: 282-285, 1979). The olfactometer (approximately 38 cm high) consisted of an upper and lower screened chamber with a closure between the chambers (FIG. 8). A fan placed above the upper chamber drew air through the apparatus at approximately 0.2 m/s. A temperature and humidity controlled chamber (5' wide by 6' long by 8' high) was constructed to house the test subject and the olfactometer. Rearing of Mosquitoes: A second environmental chamber, maintained at 27° C. and 80% humidity, was dedicated to the rearing of Aedes aegypti mosquitoes. […] Assays for Attraction of Mosquitoes to Human Subjects: A group of 30 volunteers, consisting of 14 females and 16 males and ranging in age from 24 to 68 years, was selected from the surrounding civilian population. Individuals were tested for their ability to attract Aedes aegypti mosquitoes contained in the olfactometer. Tests were conducted at a temperature of 27° C. and 50% relative humidity. […] A small fan was placed on top of the upper chamber to cause an air flow from the lower chamber to the upper chamber. A trial began when the closure between the upper and lower chamber was opened in the absence of a human host. […] This trial was repeated twice during a test session to obtain three replicates. Two additional test sessions, at time intervals of at least 1 week, were conducted to obtain at least 8-9 replicates for each of 24 subjects. Of the remaining 6 subjects, 3 were tested on two separate occasions for a total of 6 replicates per subject; 3 were tested on one occasion for a total of 3 replicates per subject. A total of 254 tests were conducted. Test compounds were dissolved in acetone or ethanol at a concentration of 150 mg/5 cc. Ethanol solutions of carboxylic acids were prepared just prior to use. Five hundred microliters of these solutions were applied to a 50 cm^2 circular area of a single layer of cotton gauze (Curity Curad gauze, Futuro Inc., Milford, Ohio) or nonwoven polyester film ([…], Inc.). The resultant dose was 0.3 mg/cm^2. […] The cup was attached to the bottom of the olfactometer (FIG. 8) so that air flowed through the stainless steel screen of the cup, through the treated gauze or film, and through the olfactometer. A volunteer's forearm was placed under the cup, so that air drawn into the cup and olfactometer was laden with human skin emanations. Tests were conducted as described in the preceding paragraph, “Assays for attraction of mosquitoes to human subjects”. Percent repellency was determined from the fraction of mosquitoes entering the lower chamber over a seven minute period. This assay is an approximate measure of the intrinsic repellency of a compound. Good repellency in this test is a necessary, but not sufficient, condition for good repellency on skin. Mosquito repellents must produce a vapor over the skin surface to confuse the host seeking behavior of the insect. However, volatilization must not be so great that the repellent action rapidly dissipates. Since volatilization from the skin will be different from an inanimate surface, skin tests are necessary to confirm that a compound will be a practical repellent.

[8] = system: Aedes aegypti mosquitoes; assay: Mosquito repellency on skin (olfactometer, human forearm); assay type: in vivo
[9] = system: Aedes aegypti mosquitoes; assay: as above; assay type: in vivo; conditions: for Percent Repellency 2 h: 0.3 mg/cm^2, 2 h after application; for Percent Repellency 0 h: 0.3 mg/cm^2, 0 h after application
From the text: Olfactometer: A Fiensod and Spielman olfactometer, as modified by Bowen and Davis, measured the host-oriented flight response of female mosquitoes to volatile host emanations (Feinsod, F. M., and A. Spielman; An olfactometer for measuring host-seeking behavior of female Aedes aegypti (Diptera: Culicidae); J. Med. Entomol., 15: 282-285, 1979). The olfactometer (approximately 38 cm high) consisted of an upper and lower screened chamber with a closure between the chambers (FIG. 8). A fan placed above the upper chamber drew air through the apparatus at approximately 0.2 m/s. A temperature and humidity controlled chamber (5′ wide by 6′ long by 8′ high) was constructed to house the test subject and the olfactometer.
Rearing of Mosquitoes: A second environmental chamber, maintained at 27° C. and 80% humidity, was dedicated to the rearing of Aedes aegypti mosquitoes. Routine shipments of eggs (American Biological Supply, Gainesville, Fla.) were used to maintain a continuous supply of adult 5-10 day old mosquitoes.
Assays for Attraction of Mosquitoes to Human Subjects: A group of 30 volunteers, consisting of 14 females and 16 males and ranging in age from 24 to 68 years, was selected from the surrounding civilian population. Individuals were tested for their ability to attract Aedes aegypti mosquitoes contained in the olfactometer. Tests were conducted at a temperature of 27° C. and 50% relative humidity. For each trial 15 avid adult female Aedes aegypti mosquitoes (5-10 days post-emergence) were placed in the upper chamber. A small fan was placed on top of the upper chamber to cause an air flow from the lower chamber to the upper chamber. A trial began when the closure between the upper and lower chamber was opened in the absence of a human host. The number of mosquitoes entering the lower chamber within a 3 minute period was recorded. The volunteer then placed his or her arm beneath the lower chamber and the number of mosquitoes flying from the upper chamber to the lower chamber was recorded for the time intervals 0-1, 1-3, 3-5 and 5-7 minutes. This trial was repeated twice during a test session to obtain three replicates. Two additional test sessions, at time intervals of at least 1 week, were conducted to obtain at least 8-9 replicates for each of 24 subjects. Of the remaining 6 subjects, 3 were tested on two separate occasions for a total of 6 replicates per subject; 3 were tested on one occasion for a total of 3 replicates per subject. A total of 254 tests were conducted.
Test compounds were dissolved in acetone or ethanol at a concentration of 300 mg/5 cc. Ethanol solutions of carboxylic acids were prepared just prior to use. Three hundred and fifty microliters of these solutions were applied to a 70 cm^2 rectangular area of the forearm. The resultant dose was 0.3 mg/cm^2. The repellent treated area was allowed to dry for 5 minutes prior to test. The treated skin area was placed under the olfactometer and tests were conducted as described in the preceding paragraph, “Assays for attraction of mosquitoes to human subjects”. Percent repellency was determined from the fraction of mosquitoes entering the lower chamber over a seven minute period.
A commercial formulation of DEET (Skintastic, S. C. Johnson, Racine,) was applied to a 100 cm^2 area on the forearm of 1 volunteer (subject 02) to give a dose of 0.3 mg/cm^2 of DEET. A formulation of C8C9C10 (5% octanoic, 5% nonanoic, 5% decanoic in Dow Corning 345 volatile silicone fluid) was applied to a 100 cm^2 on the subject's other arm to give a dose of 0.3 mg/cm^2 total acids. Application sites were placed under the olfactometer at 1, 2 and 4 hours after treatment. Untreated areas on each arm were placed under the olfactometer at the completion of the treated area tests to check the avidity of the mosquitoes. Tests were done on four separate test days. […]

[10] = system: mosquitoes; conditions: Hill et al. 1979; cited from earlier work
[11] = system: mosquitoes; conditions: under laboratory conditions; cited from earlier work
[12] = system: yellow fever mosquito (Aedes aegypti (L.)); conditions: human skin, approximately 2 mg/cm^2, time until two bites; DEET from Gilbert 1957; cited from earlier work
[13] = on skin, listed as N,N-Diethyl-m-toluamide

CCCCCC(=O)O [Hexanoic acid]
Vol. (vapor pressure) [1]: 39.6 mm Hg

CCCCCCCC=CC(=O)O [2-Decenoic acid]
Vol. (vapor pressure), (est) [2]: 2.4 (est) mm Hg
Protection Time [3]: 6 ± 4 h
Protection time against Aedes aegypti mosquitoes [4]: <15 min

CCCCC(C)CCC(=O)O (stereo not shown) [4-Methyloctanoic acid]
Vol. (vapor pressure), (est) [2]: 6 (est) mm Hg
fraction ionized at skin pH [5]: about 50%
Thermal stability [6]: thermally unstable
pest or weed control at 0.3 mg/cm2 ([7]; Aedes aegypti, 0.05 h, read-out: Percent Repellency): 88 ± 18%
repellency over a 4 hour period compared to DEET ([8]; 0.6 mg/cm^2 versus 0.3 mg/cm^2 DEET, FIG. 6): nearly equal to that of DEET
Percent Repellency 2 h ([8]; on skin, 0.6 mg/cm^2, 2 h after application): 79 ± 21 (2) %
Percent Repellency 4 h ([8]; on skin, 0.6 mg/cm^2, 4 h after application): 67 ± 9%
repellency immediately after application to skin, compared to DEET ([9]; FIG. 4): comparable to DEET
repellency two hours after skin application, ranking ([9]; FIG. 5): highest repellency
Percent Repellency 2 h ([9]; on skin): 66 (1) %

CCCC(O)C(CC)CO (stereo not shown) [2-Ethyl-1,3-hexanediol, reference compound]
protects against mosquitoes for [10]: 3 to 4 h
volatility relative to DEET ([2]; from vapor pressures of Table 7): twice as volatile as DEET

CCN(CC)C(=O)c1cccc(C)c1 [DEET, N,N,-diethyl-m-toluamide, reference compound]
protects against mosquitoes for [10]: 5 to 6 h
hours of protection [11]: 5 to 7 h
Protection Time [3]: 8 ± 2 h
Percent Repellency [7]: 74%
Percent Repellency ([7]; listed as N,N-Diethyl-m-toluamide): 74 ± 12%
Percent Repellency 0 h ([9]; on skin): 95% and 95 ± 6%
Percent Repellency 0 h [9, 13]: 95 ± 6 (3) %
Percent Repellency 2 h ([9]; on skin): 89% and 89 ± 10%
Percent Repellency 2 h [9, 13]: 89 ± 10 (3) %
Percent Repellency 4 h ([9]; on skin, 0.3 mg/cm^2, 4 h after application): 83 ± 9%
Protection time against Aedes aegypti mosquitoes [4]: 330 min
Protection time against yellow fever mosquitoes [12]: 363 min^b
